The results in this text go back to patent US6538145B2, “24-hydroxy vitamin D derivatives” (Chugai Seiyaku Kabushiki Kaisha, priority 1998, dated 2003).

The assay deals with T1, vitamin D receptor derived from chick intestine (Gallus gallus, UniProt O42392).
T1 construct: vitamin D receptor derived from chick intestine; from tissue; host or cells: chick intestine
T1 sequence (O42392 1-451): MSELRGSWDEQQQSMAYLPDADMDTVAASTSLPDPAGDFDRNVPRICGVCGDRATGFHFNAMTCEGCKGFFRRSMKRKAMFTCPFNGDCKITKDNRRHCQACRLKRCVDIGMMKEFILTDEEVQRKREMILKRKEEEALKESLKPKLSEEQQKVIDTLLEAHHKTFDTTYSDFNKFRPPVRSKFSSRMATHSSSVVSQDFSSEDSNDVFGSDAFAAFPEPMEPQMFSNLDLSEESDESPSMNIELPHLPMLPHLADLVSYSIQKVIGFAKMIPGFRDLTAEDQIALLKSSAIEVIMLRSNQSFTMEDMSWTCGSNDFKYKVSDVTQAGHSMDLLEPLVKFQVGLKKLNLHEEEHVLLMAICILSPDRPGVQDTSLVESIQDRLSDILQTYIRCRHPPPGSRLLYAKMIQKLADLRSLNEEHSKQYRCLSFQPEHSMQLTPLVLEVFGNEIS
The experiment in a line: Assay for binding to vitamin D receptor (VDR), radio receptor assay (RRA). To be noted: competition with 3H-1α,25-dihydroxyvitamin D3; test compound 1 to 100,000 nM; 4° C. for 3 hours; result in words only. The procedure: By the radio receptor assay (RRA), compounds 1a and 1b of the present invention were tested for their ability to bind to vitamin D receptor derived from chick intestine.
^3H-1α,25-dihydroxyvitamin D3 was dissolved in ethanol (20 μl) at a concentration of 10,000 dpm. Three test compounds, 1α,25-dihydroxyvitamin D3, compound la and compound 1b, were diluted with ethanol to give concentrations in the range of from 1 to 100,000 nM, respectively.
To each of small tubes, 20 μl of ^3H-1α,25 -dihydroxyvitamin D3 in solution and 50 μl of a test compound (i.e., 1α,25-dihydroxyvitamin D3, compound 1a or compound 1b) in solution were added. A solution of vitamin D receptor was prepared by dissolving 25 mg of VDR in 70 ml of 0.05M phosphate buffer solution containing 0.3 M KCl and 5 mM DTT (dithiothreitol) and 0.5 ml of the resulting solution was added to each tube, followed by mixing. […] To 0.5 ml of the supernatant, 5 ml of liquid scintillator was added for radioactivity measurement. The B/B0 value was calculated from the measurements (B: radioactivity measured in the presence of a test compound, B0: radioactivity measured in the absence of the test compound).

Regarding `C=C1C(=CC=C2CCCC3(C)C2CCC3C(C)CCC(O)C(C)(C)O)CC(O)C(OCCCO)C1O` [Compound 1a, (5Z,7E)-(1R,2R,3R,24S)-2-(3-hydroxypropoxy)-9,10-secocholesta-5,7,10(19)-triene-1,3,24,25-tetraol], the “affinity for the vitamin D receptor (B/B0, FIG. 1)” value is “show affinity for the vitamin D receptor”.
